Results taken from the supplement of paper PMC9265050, “Inhibition of RNA Binding in SND1 Increases the Levels of miR-1-3p and Sensitizes Cancer Cells to Navitoclax” (Cancers, 2022).

System: SW480
Experiment: drug sensitivity score (DSS, integrated dose-response area); higher = more sensitive (stronger viability reduction); extreme values may be limits of the assay
Outline: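 SW480 cells stably carrying doxycycline-inducible control or SND1-targeting shRNA were induced with 0.1 µg/mL doxycycline for 7 days. They were then plated at 1000 cells per well in 384-well plates holding 525 commercially available small-molecule inhibitors at five concentrations. Viability was read with CellTiter-Glo after 72 h. The drug sensitivity score integrates the area under a fitted non-linear dose–response model.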

[1] = shRNA: SND1 shRNA1 (SND1 silenced)
[2] = shRNA: SND1 shRNA2 (SND1 silenced)
[3] = shRNA: control shRNA (non-targeting)

SMILES | drug sensitivity score [1] | drug sensitivity score [2] | drug sensitivity score [3]
CCNC(=O)c1noc(-c2cc(C(C)C)c(O)cc2O)c1-c1ccc(CN2CCOCC2)cc1 [Luminespib] | 15.3 DSS | 15.4 DSS | 15.7 DSS
C=CCn1c(=O)c2cnc(Nc3ccc(N4CCN(C)CC4)cc3)nc2n1-c1cccc(C(C)(C)O)n1 [MK1775] | 13.5 DSS | 11.5 DSS | 11.9 DSS
O=C(O)CC[C@H]1CC[C@@](c2cc(F)ccc2F)(S(=O)(=O)c2ccc(Cl)cc2)CC1 [MK-0752] | 0.7 DSS | 0 DSS | 0 DSS
NC1(c2ccc(-c3nc4ccn5c(=O)[nH]nc5c4cc3-c3ccccc3)cc2)CCC1 [MK-2206] | 3.5 DSS | 4.4 DSS | 3.6 DSS
CN(C[C@@H]1COCCO1)S(=O)(=O)Nc1ccc2ccc3ncc(-c4cnn(C)c4)cc3c(=O)c2c1 [MK-2461] | 0.6 DSS | 0 DSS | 0.3 DSS
O=C(c1cccc(Cl)c1F)N1CCN(Cc2cccc(Nc3nccs3)n2)CC1 [MK-8745] | 1.7 DSS | – | 1.9 DSS
Cn1cc(-c2cnn3c(N)c(Br)c([C@@H]4CCCNC4)nc23)cn1 [MK-8776] | 0.9 DSS | 0.1 DSS | 2.2 DSS
Cc1cnc(-c2ccccc2C(C)C)nc1NCc1ccc(-n2ccnn2)cc1 [ML323] | 0 DSS | 1.4 DSS | 4.4 DSS
CC(C)n1nc(-c2ccc3oc(N)nc3c2)c2c(N)ncnc21 [MLN-0128] | 14 DSS | 12.3 DSS | 9.8 DSS
O=C(O)c1ccc(Nc2ncc3c(n2)-c2ccc(Cl)cc2C(c2c(F)cccc2F)=NC3)cc1 [MLN-8054] | 6.3 DSS | – | 6.5 DSS
O=C(Nc1cccc(NC(=O)c2cccc(O)c2O)c1)c1cccc(O)c1O [MST-312] | 7.6 DSS | 5.2 DSS | 8.2 DSS
CNC(=O)[C@@H](NC(=O)[C@H](CC(C)C)[C@H](O)C(=O)NO)C(C)(C)C [Marimastat] | 0 DSS | 0 DSS | 0 DSS
Cc1ccc(NC(=O)c2ccc(CN3CCN(C)CC3)cc2)cc1Nc1nc(-c2cccnc2)cs1 [Masitinib] | 3.1 DSS | 3.4 DSS | 4.6 DSS
CC(=O)O[C@]1(C(C)=O)CC[C@H]2[C@@H]3C=C(C)C4=CC(=O)CC[C@]4(C)[C@H]3CC[C@@]21C [Megestrol acetate] | 0 DSS | 0 DSS | 0 DSS
N[C@@H](Cc1ccc(N(CCCl)CCCl)cc1)C(=O)O [Melphalan] | 0 DSS | – | 0 DSS
CCN(CC)CCCC(C)Nc1c2ccc(Cl)cc2nc2ccc(OC)cc12 (configuration not stated) [Mepacrine] | 21.5 DSS | – | 21.5 DSS
S=c1[nH]cnc2nc[nH]c12 [Mercaptopurine] | 9.7 DSS | 5.3 DSS | 6.3 DSS
Cc1ccc(C(=O)Nc2ccc(Oc3cc4cnn(C)c4cc3-c3cn[nH]c3)c(F)c2)c(=O)n1-c1ccc(F)cc1 [Merestinib] | 4.5 DSS | 5.4 DSS | 4.3 DSS
CN(C)C(=N)NC(=N)N [Metformin] | 0 DSS | – | 1 DSS
CN(Cc1cnc2nc(N)nc(N)c2n1)c1ccc(C(=O)N[C@@H](CCC(=O)O)C(=O)O)cc1 [Methotrexate] | 11.7 DSS | – | 7.4 DSS
C[C@H]1C[C@@H]2[C@H]([C@@H](O)C[C@@]3(C)[C@H]2CC[C@]3(O)C(=O)CO)[C@@]2(C)C=CC(=O)C=C12 [Methylprednisolone] | 0 DSS | 1.4 DSS | 0 DSS
